Measurements taken from patent publication US6254883A, “Composition for transdermal delivery of drugs” (Novagent Oy, priority 1996, dated 2001).
“Also recorded” adds a separate entry of the source.

Tests used:
[1] = In vitro release of salicylate from anionic ion-exchange fiber through skin (epidermis) in Franz diffusion cells (experiment 3); type: in vitro ADME
Source text: (§1) In the experiments below a woven cloth was used comprising a cotton textile fiber (RAIEX AK II) in which […] amine groups (-N^+ (CH3)3) had been grafted to the polysaccaride molecules. The surface weight of the cloth was 200 g/m^2. The thickness of the fiber was 30-40 μm, strength 10-20 kg s/mm^2, break stretch 15-40% and the ion exchanger capacity 3.3 mekv/g.
(§2) For release studies circular discs (diameter 25 mm) were cut from the above mentioned anionic ion-exchange fiber cloth. The fiber discs were washed by 5% NaHCO3 solution in a dropfunnel until all chloride was exchanged (tested by silver nitrate in HNO3 solution). […] The discs containing salicylate were dried in 37° C.
(§3) Drug release in vitro from the fiber discs at 37° C. was tested in Franz diffusion cells (Crown Glass Co. Inc., Somerville, N.J.) (FIG. 1). In the figure reference number 11 denotes the donor compartment, 14 receiver compartment, 15 thermostat, 16 stirring rod and 12 sample tube. […] The dissolution medium was pH 7.4 phosphate buffer saline (PBS, 143 mM, μ=0.15 (μ=ionic strength)) in experiment 1 and pH 7.4 phosphate buffer (6 mM, […]) in experiments 2 and 3. To assess the effect of the skin on drug release (experiment 3), a piece of epidermis 13 was placed between the fiber disc and buffer solution. At fixed times, samples of 250 μl were withdrawn and the drug concentration in the samples were determined by using HPLC (Beckman System Gold, Beckman Instrument, San Ramon, Calif.) with a Supelcosil LC-18-DB column (5 μm, 150×4.6 mm) (Supelco Inc., Rohm and Haab Co., Bellefonte, Pa.). The mobile phase was a binary mixture of methanol (40% v/v) and pH 7.0 phosphate buffer (60%). The detection wavelenght was 298 nm, and the flow rate of 1.0 ml/min, the retention time was 2.6 min.

[2] = pH 7.0 phosphate buffer (200 mM) containing 6.27 g/l NaCl; donor 50 μg/ml; cited from earlier work
[3] = In vitro release of salicylate from anionic ion-exchange fiber discs in Franz diffusion cells, 37° C. (experiments 1 and 2)
Source text: as §1, §2, §3

[4] = cited from earlier work
[5] = buffered solution pH=7; 30 mg tacrine per gram of fiber
Procedure: An acidic fiber ion exchanger was treated with this solution, wherein the following reaction occurred:
wherein R is the back bone of the fiber ion exchanger (polypropylene).
The ion exchange performance of this fiber ion-exchanger was tested in a Franz diffusion cell (see FIG. 1) to
a buffered solution (pH=7), and t

[6] = Delivery of tacrine from acidic fiber ion exchanger to blood through skin, Franz diffusion cell (Example 2); type: in vitro ADME; conditions: 30 mg tacrine per gram of fiber
[7] = Tacrine (-HCl), cited from earlier work
[8] = Tacrine permeation across human skin in vitro, Side-by-Side diffusion chambers (Example 3); type: in vitro ADME
[9] = phosphate buffer 6 mM, pH 7,4
Procedure: The cationic fiber discs were washed in 5% HCl solution in a dropfunnel until all sodium was exchanged.
Drug release from the fiber discs was tested in vitro in Franz diffusion cells (Crown Glass Co., Somerville, N.J.) at 37 C. The fiber discs were placed in the diffusion cells so that one side of the cationic ion-exchange fiber was exposed to the dissolution medium (phosphate-buffer6 mM, pH 7,4). Surface area of the fiber discs exposed to the buffer was 0,64 cm^2. […] The column used was Supelcosil LC-18-DB (5 m, 150 mm×4,6 mm), and the mobile phase included 22% of acetonitrile, 1% of triethylamine, and 77% of phosphate buffer at pH 6,5. Detection wavelength was 240 nm and flow rate was 1,0 ml per min.

O=C([O-])c1ccccc1O.[Na+] [Sodium salicylate, sodium salicylate]
release kinetics through skin (in words) ([1]; after initial lag time): followed zero-order kinetic after initial lag time | burst effect with skin (in words) ([1]; with skin): the burst effect disappeared | lag time before steady state release ([1]; with skin): about 2 h | in vitro permeability through skin [2]: about 0.34 μg/cm^2 /h | duration of nearly constant / controlled release (in words) ([3]; anionic ion-exchange fiber, in vitro): two days; also recorded: several days | duration of initial burst ([3]; experiment 1, PBS 143 mM): < 6 h | release rate after initial burst (nearly constant) ([3]; experiment 1, PBS 143 mM, pH 7.4, after initial burst): 20-30 μg/h/cm^2 | release rate in the beginning of the experiment (burst) ([3]; experiment 1, PBS 143 mM, pH 7.4, initial burst): about 350 μg/h/cm^2 | duration of constant release phase ([3]; experiment 2, phosphate buffer 6 mM, μ=0.20): about 50 h | rate of salicylate release during the constant release phase ([3]; experiment 2, phosphate buffer 6 mM, μ=0.20, pH 7.4): about 60 μg/h/cm^2 | release rate and released amount, phosphate buffer vs PBS (in words) ([3]; phosphate buffer (6 mM, μ=0.20) compared with PBS (143 mM, μ=0.15)): higher in phosphate buffer (6 mM, μ=0.20) than in PBS solution (143 mM, μ=0.15)

Nc1c2c(nc3ccccc13)CCCC2 [tacrine, 9-amino-1,2,3,4-tetrahydroacridine]
side-effects above clinical concentration (in words) ([4]; above about 5-30 ng/ml, oral): unwanted side-effects are more likely to take place | elimination half-life T1/2 ([4]; human, in vivo): 1,4-3,6 h | first-pass metabolism (in words) ([4]; in vivo): extensive first-pass metabolism | peroral bioavailability ([4]; peroral): 5-35% | amount of tacrine delivered to buffered solution (in words) [5]: pharmacologically significant amounts | amount of tacrine delivered to blood through skin (in words) [6]: pharmacologically significant amounts | solubility in water (in words) [7]: soluble in water | charge at physiological pH (in words) ([7]; physiological pH, assumed): assumed to carry a positive charge | steady-state flux of tacrine across human skin ([8]; 5% solution, pH 7,4, in vitro): 2,95 g/h per cm^2 | duration of constant drug delivery from the fiber across skin ([8]; cationic ion-exchange fiber): 120 h | delivery of tacrine across the skin from the cationic ion-exchange fiber ([8]; cationic ion-exchange fiber with 3,5% tacrine in HEPES-buffer): about 0,003 g/h per cm^2 | lag-time of permeation ([8]; tacrine solution, human skin, pH 7,4): ca. 24 h | tacrine release rate from the cationic ion-exchange fiber ([9]; during the first 10 hours): about 375 g/h per cm^2 | duration of initial burst of tacrine release ([9]; 37 C.): 6 to 12 h | tacrine released from the fiber after initial burst ([9]; after initial burst of about 6-12 h): 50%
